Assay [1] in a line: hypocalcemic response in parathyroidectomized rats. It counts as in vivo, rat. The settings on record: NPS R-467 10 mg/kg i.p., 6 hours; NPS R-568 oral. The source says:
To determine the primary target tissue upon which NPS R-467 acts to cause a hypocalcemic response, the parathyroid glands in rats were surgically removed. Animals receiving a total parathyroidectomy become hypocalcemic and are largely dependent upon dietary calcium to maintain serum Ca^2+ homeostasis.

Assay [2] concerns the target T1, bovine parathyroid cell calcium receptor (BoPCaR 1) (Bos taurus, UniProt P35384).
T1 construct: Xenopus oocytes were injected with BoPCaR 1, the 5.3 Kb cDNA encoding a bovine parathyroid cell calcium receptor; expressed in transfected cells; host or cells: Xenopus laevis oocytes injected with cRNA/cDNA of BoPCaR 1
T1 sequence (P35384 20-1085): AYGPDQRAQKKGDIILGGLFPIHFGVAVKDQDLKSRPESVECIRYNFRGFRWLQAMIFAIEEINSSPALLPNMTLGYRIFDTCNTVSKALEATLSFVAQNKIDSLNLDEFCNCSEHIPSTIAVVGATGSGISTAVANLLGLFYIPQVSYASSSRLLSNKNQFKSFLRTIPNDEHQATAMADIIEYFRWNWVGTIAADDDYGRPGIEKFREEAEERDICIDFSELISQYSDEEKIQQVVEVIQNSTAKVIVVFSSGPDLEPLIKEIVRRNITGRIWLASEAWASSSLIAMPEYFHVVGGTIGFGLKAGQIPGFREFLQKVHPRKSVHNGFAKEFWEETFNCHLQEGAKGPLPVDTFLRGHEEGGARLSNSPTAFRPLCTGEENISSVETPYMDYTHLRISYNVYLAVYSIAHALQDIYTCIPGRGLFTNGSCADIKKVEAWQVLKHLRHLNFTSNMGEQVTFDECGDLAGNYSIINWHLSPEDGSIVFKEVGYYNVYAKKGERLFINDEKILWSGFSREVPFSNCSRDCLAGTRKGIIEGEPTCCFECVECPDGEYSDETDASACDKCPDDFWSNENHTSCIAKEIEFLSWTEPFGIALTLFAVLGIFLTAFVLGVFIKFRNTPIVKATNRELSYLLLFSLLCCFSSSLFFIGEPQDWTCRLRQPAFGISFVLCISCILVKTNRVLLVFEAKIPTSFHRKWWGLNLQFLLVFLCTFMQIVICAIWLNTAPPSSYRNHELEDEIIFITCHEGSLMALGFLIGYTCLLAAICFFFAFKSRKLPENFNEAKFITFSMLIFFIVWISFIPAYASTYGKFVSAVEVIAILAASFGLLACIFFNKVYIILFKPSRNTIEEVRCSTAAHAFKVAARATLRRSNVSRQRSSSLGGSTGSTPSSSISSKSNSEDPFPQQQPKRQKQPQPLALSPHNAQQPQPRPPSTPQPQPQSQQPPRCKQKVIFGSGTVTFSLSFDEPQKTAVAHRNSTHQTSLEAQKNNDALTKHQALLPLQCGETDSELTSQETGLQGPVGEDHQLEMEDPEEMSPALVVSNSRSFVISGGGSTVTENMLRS
Put plainly: Cl- current in Xenopus oocytes expressing BoPCaR 1. It counts as cell-based. The settings on record: for Cl- current response in the absence of extracellular Ca2+: no extracellular Ca2+. As for the experimental part:
Following incubation, an oocyte was placed into a 100-μl plastic chamber and superfused with MBS at a flow rate of 0.5 ml/min using a peristaltic pump. Test molecules or inorganic polycations were added by rapidly moving the tubing into different buffers. Recording and current-passing electrodes were constructed from thin-wall capillary tubing pulled to a resistance of 1-3 Mohms and filled with 3M KCl. […] Currents were recorded directly onto a strip chart recorder.
The techniques used to clone the parathyroid calcium receptor are briefly described in this example; a more complete description of the techniques is provided in preceding sections, which describe techniques which may be used to clone additional forms of the Ca^2+ -receptor from other cell types. Poly(A^+)-enriched mRNA was initially prepared from bovine parathyroid glands by extracting with guanidinium thiocyanate, centrifugation through CsCl and oligo(dT) cellulose chromatography. […] No such currents were elicited in control eggs injected with water.
These responses are mediated by the following series of biochemical events:
Xenopus oocytes were injected with BoPCaR 1, the 5.3 Kb cDNA encoding a bovine parathyroid cell calcium receptor as described in Example 25. After two to three days, Cl^- currents were examined in the oocytes using a two-electrode voltage clamp.
Xenopus oocytes were injected with BoPCaR 1 as described in Example 25. After two to three days, Cl^- currents were examined in the oocytes using two electrode voltage clamp.

The target in the next assay is T2, C-cell calcium receptor (Rattus norvegicus, UniProt P48442).
T2 sequence (P48442 20-1079): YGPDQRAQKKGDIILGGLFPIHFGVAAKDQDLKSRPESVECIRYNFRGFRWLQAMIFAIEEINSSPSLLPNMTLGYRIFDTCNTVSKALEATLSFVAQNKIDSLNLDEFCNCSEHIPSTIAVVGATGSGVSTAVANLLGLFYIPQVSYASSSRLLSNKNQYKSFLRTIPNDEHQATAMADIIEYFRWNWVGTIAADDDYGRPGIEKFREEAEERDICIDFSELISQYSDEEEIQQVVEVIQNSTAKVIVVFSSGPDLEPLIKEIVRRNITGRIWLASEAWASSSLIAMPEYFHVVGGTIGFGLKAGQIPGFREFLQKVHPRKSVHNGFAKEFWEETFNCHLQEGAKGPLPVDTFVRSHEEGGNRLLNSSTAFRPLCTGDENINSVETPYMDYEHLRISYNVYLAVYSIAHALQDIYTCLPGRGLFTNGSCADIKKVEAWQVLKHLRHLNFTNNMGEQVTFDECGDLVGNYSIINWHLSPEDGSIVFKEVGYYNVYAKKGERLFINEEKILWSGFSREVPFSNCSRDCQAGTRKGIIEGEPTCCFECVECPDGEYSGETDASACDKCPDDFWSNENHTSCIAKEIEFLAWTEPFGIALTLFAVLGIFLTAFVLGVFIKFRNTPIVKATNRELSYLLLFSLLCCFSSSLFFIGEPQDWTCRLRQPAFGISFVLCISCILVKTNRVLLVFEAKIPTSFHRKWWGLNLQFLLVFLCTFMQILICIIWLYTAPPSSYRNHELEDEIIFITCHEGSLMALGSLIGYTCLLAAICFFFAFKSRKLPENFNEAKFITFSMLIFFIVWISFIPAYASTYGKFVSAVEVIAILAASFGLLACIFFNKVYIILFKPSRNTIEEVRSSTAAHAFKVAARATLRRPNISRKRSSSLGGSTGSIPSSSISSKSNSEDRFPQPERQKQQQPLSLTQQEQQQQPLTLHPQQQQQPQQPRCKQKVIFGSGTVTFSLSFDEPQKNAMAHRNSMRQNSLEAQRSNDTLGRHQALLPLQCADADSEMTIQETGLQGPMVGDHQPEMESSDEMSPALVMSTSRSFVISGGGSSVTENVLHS
Description: increase in [Ca2+]i in C-cell line 44-2. The settings on record: 1 mM extracellular Ca2+. The format is cell-based. An excerpt: C-cells appear to express a calcium receptor that is structurally similar to that present on parathyroid cells (see Example 31). […] Thus, compounds in this structural series appear to activate the C-cell calcium receptor.

“Also recorded” adds a separate entry of the source.

Regarding `COc1cccc([C@@H](C)NCCCc2ccccc2)c1` (single isomer, unassigned) [NPS R-467], the “serum ionized Ca2+ in parathyroidectomized rats” value in assay [1] is reported as “did not cause any change in serum ionized”. For the same compound, in assay [2], the “potentiation of response to submaximal extracellular Ca2+” value is “potentiate the response”. On C-cell calcium receptor, the “increase in [Ca2+]i in 44-2 C-cells” value is “concentration-dependent increase”.

In the case of `NCCCNCCCCNCCCNCCCNCCCNC(=O)Cc1c[nH]c2ccccc12` [NPS 019], the “Cl- current” value in assay [2] (1 mM extracellular Ca2+) was “oscillatory increases”. Moreover, in assay [2], the “Cl- current response in the absence of extracellular Ca2+” value (“Cl- current response in the absence” for short) was “persisted”.

`COc1cccc([C@@H](C)NCCCc2ccccc2Cl)c1` [NPS R-568, (R)-(+)-N-[3-(2-chlorophenyl)propyl]-amethyl-α-3-methoxybenzylamine]: the “serum ionized Ca2+ in parathyroidectomized rats” value in assay [1] was “fails to elicit a hypocalcemic response”. For the same compound, in assay [2], the “potentiation of response to submaximal extracellular Ca2+” value is reported as “potentiate the response; also recorded: potentiated the responses to submaximal concentrations” and the “Cl- current response in the absence” value was “abolished”. For the same compound, on C-cell calcium receptor, the “increase in [Ca2+]i in 44-2 C-cells” value is on record as “concentration-dependent increase”.

Take `NC[C@@H]1O[C@H](O[C@H]2[C@@H](O)[C@H](O[C@@H]3[C@@H](O)[C@H](N)C[C@H](N)[C@H]3O[C@H]3O[C@H](CN)[C@@H](O)[C@H](O)[C@H]3N)O[C@@H]2CO)[C@H](N)[C@@H](O)[C@@H]1O` [Neomycin]: in assay [2], the “concentrations eliciting increases in Cl- current” value lay within 20 to 100 µM and the “Cl- current response in the absence” value is reported as “persists”. In addition, the “large inward currents: effective concentration” value in assay [2] (cRNA-injected oocytes) amounted to 200 µM.

These data come from US5858684A, “Method of screening calcium receptor-active molecules” (priority 1995, dated 1999).
